The source made the active and inactive calls.
Assays:
[1] = molecular target: Botulinum neurotoxin type F (Clostridium botulinum, UniProt P30996); experiment: High-throughput multiplex microsphere dose response for inhibitors of toxin protease, specifically Botulinum neurotoxin light chain F protease, compounds from Cherry Pick 02.; assay type: functional; conditions: read-out: EC50_MICROM
[2] = molecular target: T1, Replicative DNA helicase DnaB (Mycobacterium tuberculosis, UniProt P9WMR3); experiment: DnaB intein splicing inhibitors, dose response, biochemical, cell-free fluorescence (AID 449749); assay type: functional
T1 sequence (P9WMR3 whole entry): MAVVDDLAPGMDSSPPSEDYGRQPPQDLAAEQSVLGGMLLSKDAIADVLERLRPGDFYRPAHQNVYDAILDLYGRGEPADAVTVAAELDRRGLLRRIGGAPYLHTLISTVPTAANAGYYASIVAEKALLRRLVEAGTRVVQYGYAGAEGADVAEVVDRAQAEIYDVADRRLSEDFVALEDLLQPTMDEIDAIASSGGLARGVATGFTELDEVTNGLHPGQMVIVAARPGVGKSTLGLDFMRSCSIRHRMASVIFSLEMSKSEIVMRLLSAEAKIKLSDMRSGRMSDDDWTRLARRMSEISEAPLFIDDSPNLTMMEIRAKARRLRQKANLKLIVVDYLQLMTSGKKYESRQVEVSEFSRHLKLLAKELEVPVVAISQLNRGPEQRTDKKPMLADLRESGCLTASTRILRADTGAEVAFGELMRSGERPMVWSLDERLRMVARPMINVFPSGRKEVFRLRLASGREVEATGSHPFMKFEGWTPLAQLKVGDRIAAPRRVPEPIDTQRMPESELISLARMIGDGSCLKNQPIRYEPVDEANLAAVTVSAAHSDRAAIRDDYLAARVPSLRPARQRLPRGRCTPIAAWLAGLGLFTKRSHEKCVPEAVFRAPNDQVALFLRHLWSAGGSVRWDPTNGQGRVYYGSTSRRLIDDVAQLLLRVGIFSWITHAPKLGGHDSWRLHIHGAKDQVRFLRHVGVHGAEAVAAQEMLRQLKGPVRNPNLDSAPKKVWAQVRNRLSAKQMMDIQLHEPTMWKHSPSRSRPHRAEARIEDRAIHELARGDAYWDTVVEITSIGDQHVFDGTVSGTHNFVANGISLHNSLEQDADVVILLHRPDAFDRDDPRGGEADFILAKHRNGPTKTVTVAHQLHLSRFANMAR

Protein RecA = molecular target: T2, Protein RecA (Mycobacterium tuberculosis, UniProt P9WHJ3); experiment: Fluorescence Cell-Free Homogeneous Dose Retest to Identify Inhibitors of RecA-Intein Splicing Activity. [Related pubchem assays (depositor defined):AID2097, AID2223, AID489010, AID492950]; assay type: functional
T2 sequence (P9WHJ3 whole entry): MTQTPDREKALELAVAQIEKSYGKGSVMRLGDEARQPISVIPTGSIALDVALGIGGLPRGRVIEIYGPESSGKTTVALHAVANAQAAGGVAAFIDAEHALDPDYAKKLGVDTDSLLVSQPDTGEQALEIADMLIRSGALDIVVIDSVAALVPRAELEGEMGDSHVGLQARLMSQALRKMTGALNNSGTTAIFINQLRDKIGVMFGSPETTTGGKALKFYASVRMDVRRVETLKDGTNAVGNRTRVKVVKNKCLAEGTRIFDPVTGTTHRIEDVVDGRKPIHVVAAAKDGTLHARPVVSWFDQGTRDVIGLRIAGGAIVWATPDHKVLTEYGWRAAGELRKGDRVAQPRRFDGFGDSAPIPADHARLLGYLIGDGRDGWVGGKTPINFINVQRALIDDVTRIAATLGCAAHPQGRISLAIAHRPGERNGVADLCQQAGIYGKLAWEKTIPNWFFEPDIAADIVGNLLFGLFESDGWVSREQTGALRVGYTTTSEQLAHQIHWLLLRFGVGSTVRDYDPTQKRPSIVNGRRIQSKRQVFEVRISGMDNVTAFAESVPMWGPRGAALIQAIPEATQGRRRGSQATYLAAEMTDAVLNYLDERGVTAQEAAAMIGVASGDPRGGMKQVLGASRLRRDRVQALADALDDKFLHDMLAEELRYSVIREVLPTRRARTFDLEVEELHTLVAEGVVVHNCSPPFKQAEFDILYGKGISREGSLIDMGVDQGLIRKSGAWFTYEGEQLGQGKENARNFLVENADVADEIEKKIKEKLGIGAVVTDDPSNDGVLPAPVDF

[3] = molecular target: T3, Sentrin-specific protease 8 (Homo sapiens, UniProt Q96LD8); assay type: functional
T3 sequence (Q96LD8 whole entry): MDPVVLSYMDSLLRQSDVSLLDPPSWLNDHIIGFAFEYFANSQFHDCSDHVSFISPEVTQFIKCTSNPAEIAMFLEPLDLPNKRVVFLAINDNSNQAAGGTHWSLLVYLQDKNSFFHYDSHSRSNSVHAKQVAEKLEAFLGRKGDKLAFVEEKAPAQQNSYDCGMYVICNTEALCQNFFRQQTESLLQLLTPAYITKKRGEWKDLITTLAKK

Mu-type opioid receptor = Mu-type opioid receptor (Homo sapiens, UniProt P35372); assay type: functional, cell-based;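 further: U2OS cells with beta-arrestin recruitment to OPRM1 by beta-gal complementation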
Chain of Mu-type opioid receptor (P35372 whole entry): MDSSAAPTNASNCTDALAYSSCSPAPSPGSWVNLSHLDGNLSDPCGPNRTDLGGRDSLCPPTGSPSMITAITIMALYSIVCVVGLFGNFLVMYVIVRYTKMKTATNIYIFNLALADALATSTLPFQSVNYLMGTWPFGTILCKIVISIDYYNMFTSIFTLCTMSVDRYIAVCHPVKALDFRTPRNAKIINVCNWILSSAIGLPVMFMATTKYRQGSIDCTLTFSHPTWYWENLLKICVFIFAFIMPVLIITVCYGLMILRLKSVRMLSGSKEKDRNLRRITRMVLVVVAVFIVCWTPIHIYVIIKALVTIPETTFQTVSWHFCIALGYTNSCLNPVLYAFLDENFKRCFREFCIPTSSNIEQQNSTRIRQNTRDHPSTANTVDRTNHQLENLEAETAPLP

[4] = molecular target: 5-hydroxytryptamine receptor 2A (Mus musculus, UniProt P35363); assay type: functional, cell-based;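 further: CHO-K1 cells with tagged receptor and beta-arrestin; agonist potency measured as compound-induced activation of the receptor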
Chain of 5-hydroxytryptamine receptor 2A (P35363 whole entry): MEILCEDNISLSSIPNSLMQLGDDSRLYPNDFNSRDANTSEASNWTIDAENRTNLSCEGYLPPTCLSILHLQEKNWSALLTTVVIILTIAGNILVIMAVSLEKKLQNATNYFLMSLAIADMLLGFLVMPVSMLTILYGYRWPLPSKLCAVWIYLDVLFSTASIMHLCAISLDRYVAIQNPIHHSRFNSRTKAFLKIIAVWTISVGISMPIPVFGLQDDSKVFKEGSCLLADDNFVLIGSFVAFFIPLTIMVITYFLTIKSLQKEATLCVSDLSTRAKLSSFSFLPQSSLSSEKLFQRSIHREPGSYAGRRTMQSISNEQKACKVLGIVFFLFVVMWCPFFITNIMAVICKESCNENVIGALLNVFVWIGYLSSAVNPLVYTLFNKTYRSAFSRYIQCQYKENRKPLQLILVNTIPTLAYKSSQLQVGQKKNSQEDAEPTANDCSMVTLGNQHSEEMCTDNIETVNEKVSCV

[5] = molecular target: T4, Small ubiquitin-related modifier 1 (Homo sapiens, UniProt P63165); experiment: SUMO1 protein interaction blockers, potency – biochemical, fluorescence polarization, uHTS hits, dose response (AID 624382); assay type: functional; conditions: read-out: IC50_Mean
T4 sequence (P63165 whole entry): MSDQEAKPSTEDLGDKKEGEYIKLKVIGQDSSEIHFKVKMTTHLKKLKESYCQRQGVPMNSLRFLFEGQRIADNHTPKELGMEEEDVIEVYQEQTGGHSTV

[6] = molecular target: T4, Small ubiquitin-related modifier 1; experiment: SUMO1 protein-protein binding blockers, potency – biochemical, FRET, dose response (AID 624383); assay type: functional; conditions: read-out: IC50_Mean
[7] = Luminescence Cell-Based Dose Confirmation HTS to Identify Activators of 5'UTR Stem-Loop Driven Alpha-Synuclein mRNA Translation in H4 Neuroglioblastoma Cells. [Related pubchem assays: 1829 (Project Summary), 1814 (Primary HTS)]; assay type: functional
[8] = Luminescence Cell-Based Dose Response HTS to Identify Activators of Luciferase Translation or Activity in H4 […] Cells. [Related pubchem assays: 1829 (Project Summary), 1814 (Primary HTS)]; assay type: functional
cells [9] = assay type: functional, cell-based
H4 = experiment: Luminescence Cell-Based Dose Response HTS to Identify Activators of 5'UTR Stem-Loop Driven Prion Protein mRNA Translation in H4 Neuroglioblastoma Cells. [Related pubchem assays: 1829 (Project Summary), 1814 (Primary HTS)]; assay type: functional; conditions: Homo sapiens
cells [10] = assay type: functional, cell-based; remark: listed apart in the source
[11] = molecular target: ADP-ribosylation factor GTPase-activating protein 1 (Rattus norvegicus, UniProt Q62848); experiment: Fluorescence polarization-based biochemical high throughput dose response screening assay to identify inhibitors of ADP-ribosylation factor GTPase activating protein 1 (ARFGAP1).; assay type: functional
Chain of ADP-ribosylation factor GTPase-activating protein 1 (Q62848 whole entry, the tested form may be a part): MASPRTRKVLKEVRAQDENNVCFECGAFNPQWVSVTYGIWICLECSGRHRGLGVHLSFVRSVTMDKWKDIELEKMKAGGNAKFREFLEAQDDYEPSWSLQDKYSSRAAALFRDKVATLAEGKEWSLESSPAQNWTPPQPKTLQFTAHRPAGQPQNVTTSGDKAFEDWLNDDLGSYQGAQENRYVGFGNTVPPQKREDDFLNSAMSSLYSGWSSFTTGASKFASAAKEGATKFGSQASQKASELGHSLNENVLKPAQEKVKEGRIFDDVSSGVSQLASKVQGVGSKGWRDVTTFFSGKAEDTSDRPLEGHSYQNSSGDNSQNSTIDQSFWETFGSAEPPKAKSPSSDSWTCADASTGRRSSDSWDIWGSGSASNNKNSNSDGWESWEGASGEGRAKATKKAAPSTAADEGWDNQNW

[12] = molecular target: Sentrin-specific protease 1 (Homo sapiens, UniProt Q9P0U3); experiment: Dose response confirmation of small molecule inhibitors of the catalytic domain of the SUMO protease, SENP1 in a FRET assay.; assay type: functional; conditions: read-out: IC50_Mean
Chain of Sentrin-specific protease 1 (Q9P0U3 whole entry, the tested form may be a part): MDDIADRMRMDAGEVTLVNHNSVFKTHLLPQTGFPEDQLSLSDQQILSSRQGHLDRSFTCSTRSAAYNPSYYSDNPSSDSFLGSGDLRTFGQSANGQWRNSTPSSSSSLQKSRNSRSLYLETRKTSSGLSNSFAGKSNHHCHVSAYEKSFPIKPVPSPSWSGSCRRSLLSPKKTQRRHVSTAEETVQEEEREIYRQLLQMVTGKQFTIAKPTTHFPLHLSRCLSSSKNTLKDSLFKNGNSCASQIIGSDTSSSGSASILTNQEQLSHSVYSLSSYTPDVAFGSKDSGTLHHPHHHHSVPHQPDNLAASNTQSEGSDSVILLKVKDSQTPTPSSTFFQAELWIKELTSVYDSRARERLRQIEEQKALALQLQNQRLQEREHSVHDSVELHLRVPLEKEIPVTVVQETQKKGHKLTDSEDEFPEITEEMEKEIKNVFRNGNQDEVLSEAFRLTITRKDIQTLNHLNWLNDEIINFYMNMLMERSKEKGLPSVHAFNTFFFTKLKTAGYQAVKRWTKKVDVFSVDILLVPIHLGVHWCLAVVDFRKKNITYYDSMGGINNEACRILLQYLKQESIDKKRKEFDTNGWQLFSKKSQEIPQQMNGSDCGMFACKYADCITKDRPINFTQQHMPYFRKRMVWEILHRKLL

[13] = molecular target: T5, Tyrosine-protein phosphatase non-receptor type 11 (Homo sapiens, UniProt Q06124); experiment: PTPN11 enzyme inhibitors – biochemical, selectivity assay for STEP inhibitor project, dose response (AID 602367); assay type: functional; conditions: read-out: IC50_Mean
T5 sequence (Q06124 whole entry): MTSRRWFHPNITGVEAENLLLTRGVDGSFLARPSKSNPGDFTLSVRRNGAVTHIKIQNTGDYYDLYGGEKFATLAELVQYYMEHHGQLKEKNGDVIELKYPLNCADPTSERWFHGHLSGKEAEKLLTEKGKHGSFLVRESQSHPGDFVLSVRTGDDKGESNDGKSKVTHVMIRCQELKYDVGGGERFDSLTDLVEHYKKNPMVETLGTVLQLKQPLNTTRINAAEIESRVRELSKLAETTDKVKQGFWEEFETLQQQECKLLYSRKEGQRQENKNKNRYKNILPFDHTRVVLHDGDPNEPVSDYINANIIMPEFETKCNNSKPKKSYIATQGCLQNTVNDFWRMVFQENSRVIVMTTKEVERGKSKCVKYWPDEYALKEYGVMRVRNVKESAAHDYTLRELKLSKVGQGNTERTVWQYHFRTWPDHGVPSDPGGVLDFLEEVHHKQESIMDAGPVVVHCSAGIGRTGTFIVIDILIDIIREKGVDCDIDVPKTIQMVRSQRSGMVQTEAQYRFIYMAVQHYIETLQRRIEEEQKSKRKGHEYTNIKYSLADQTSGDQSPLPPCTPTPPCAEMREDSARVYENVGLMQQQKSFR

[14] = molecular target: T6, Tyrosine-protein phosphatase non-receptor type 5 (Homo sapiens, UniProt P54829); experiment: PTPN5 enzyme inhibition – biochemical, fluorescence intensity, uHTS hits, confirmation (AID 602372); assay type: functional; conditions: read-out: IC50_Mean
T6 sequence (P54829 whole entry): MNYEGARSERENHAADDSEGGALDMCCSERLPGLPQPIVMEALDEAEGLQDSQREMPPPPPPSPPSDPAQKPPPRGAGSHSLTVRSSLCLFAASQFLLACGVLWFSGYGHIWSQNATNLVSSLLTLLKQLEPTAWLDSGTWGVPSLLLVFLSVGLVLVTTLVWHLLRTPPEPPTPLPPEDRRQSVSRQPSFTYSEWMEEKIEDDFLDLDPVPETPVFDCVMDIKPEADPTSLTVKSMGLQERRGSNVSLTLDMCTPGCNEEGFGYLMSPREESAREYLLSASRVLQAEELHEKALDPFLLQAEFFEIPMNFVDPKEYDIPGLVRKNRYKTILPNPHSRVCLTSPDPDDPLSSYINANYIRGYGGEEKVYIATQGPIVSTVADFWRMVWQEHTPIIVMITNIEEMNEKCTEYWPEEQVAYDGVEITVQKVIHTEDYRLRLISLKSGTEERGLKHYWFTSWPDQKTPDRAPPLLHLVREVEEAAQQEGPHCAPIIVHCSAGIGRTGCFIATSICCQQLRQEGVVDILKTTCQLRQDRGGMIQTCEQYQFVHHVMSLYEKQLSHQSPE

[15] = molecular target: Dual specificity protein phosphatase 3 (Homo sapiens, UniProt P51452); experiment: VHR phosphatase inhibition, dose response, selectivity assay for STEP inhibitor project, biochemical (AID 602374); assay type: functional; conditions: read-out: IC50_Mean
Chain of Dual specificity protein phosphatase 3 (P51452 whole entry): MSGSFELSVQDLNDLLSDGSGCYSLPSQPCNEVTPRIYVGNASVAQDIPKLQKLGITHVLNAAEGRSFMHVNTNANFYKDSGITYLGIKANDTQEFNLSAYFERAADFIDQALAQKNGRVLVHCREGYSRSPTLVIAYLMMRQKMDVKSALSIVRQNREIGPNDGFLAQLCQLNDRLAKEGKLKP

[16] = molecular target: T7, Tyrosine-protein phosphatase non-receptor type 22 (Homo sapiens, UniProt Q9Y2R2); experiment: lymphoid phosphatase LYP inhibitors – biochemical, selectivity assay for STEP inhibitor project, dose response (AID 624241); assay type: functional
T7 sequence (Q9Y2R2 whole entry): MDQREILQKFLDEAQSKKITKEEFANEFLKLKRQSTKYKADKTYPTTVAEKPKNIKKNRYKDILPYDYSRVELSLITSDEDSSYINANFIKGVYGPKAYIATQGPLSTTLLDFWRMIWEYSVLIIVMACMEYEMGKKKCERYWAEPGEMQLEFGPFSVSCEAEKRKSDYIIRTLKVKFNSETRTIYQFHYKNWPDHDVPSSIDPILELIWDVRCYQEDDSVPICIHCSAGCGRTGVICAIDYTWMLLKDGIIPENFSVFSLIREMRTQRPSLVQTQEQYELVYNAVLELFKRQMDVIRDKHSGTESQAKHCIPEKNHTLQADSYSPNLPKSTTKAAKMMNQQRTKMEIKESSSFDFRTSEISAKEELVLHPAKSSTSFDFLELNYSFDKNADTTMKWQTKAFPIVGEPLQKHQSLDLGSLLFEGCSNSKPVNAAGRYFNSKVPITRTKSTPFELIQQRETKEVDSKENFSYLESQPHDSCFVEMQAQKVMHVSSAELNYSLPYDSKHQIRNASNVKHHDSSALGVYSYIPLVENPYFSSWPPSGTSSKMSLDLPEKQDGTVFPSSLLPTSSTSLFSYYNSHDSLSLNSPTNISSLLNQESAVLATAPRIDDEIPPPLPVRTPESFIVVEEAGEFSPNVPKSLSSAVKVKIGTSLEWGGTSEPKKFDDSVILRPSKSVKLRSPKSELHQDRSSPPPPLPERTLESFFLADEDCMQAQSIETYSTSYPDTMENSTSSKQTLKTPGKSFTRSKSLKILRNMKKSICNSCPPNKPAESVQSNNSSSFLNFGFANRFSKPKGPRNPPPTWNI

[17] = molecular target: Low molecular weight phosphotyrosine protein phosphatase (Homo sapiens, UniProt P24666); assay type: functional; conditions: read-out: IC50_Mean;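 further: Dose-response confirmation assay measuring inhibition of LMPTP enzyme activity by fluorescence intensity read-out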
Chain of Low molecular weight phosphotyrosine protein phosphatase (P24666 whole entry): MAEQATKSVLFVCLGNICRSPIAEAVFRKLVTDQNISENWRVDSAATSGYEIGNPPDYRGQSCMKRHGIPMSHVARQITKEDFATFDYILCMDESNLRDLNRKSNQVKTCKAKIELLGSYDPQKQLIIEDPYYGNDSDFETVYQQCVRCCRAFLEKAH

[18] = activation of miR-122 Renilla sensor silencing – cell-based, Huh7 psiCHECK-miR122, Renilla luciferase, cherry-picked, dose response (AID 651956); assay type: functional;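 further: huh7 hepatoma cells stably carrying a psiCHECK-2 miR-122 sensor plasmid; renilla luciferase signal reporting endogenous miR-122 activity after 48 h compound exposure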

Chain of Botulinum neurotoxin type F (P30996 1-436 limits assumed): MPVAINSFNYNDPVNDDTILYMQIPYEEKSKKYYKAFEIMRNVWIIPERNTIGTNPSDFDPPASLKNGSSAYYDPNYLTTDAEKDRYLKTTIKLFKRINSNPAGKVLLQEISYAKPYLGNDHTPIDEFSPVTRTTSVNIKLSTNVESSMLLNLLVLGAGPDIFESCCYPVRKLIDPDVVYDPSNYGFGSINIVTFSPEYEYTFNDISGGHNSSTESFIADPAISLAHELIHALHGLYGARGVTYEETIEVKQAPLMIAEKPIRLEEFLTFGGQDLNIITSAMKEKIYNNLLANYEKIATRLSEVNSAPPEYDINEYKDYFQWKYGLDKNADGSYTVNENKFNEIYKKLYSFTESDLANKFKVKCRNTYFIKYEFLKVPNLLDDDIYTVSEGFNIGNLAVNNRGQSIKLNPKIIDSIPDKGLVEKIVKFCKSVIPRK

## COc1ccc(C(CNC(=O)c2cc(S(=O)(=O)N3CCCCC3)ccc2C)N2CCCC2)cc1 (stereo unspecified)
[1]
  EC50: > 20 µM (inactive)

## COc1ccc(-c2cc(=O)n(CCC#N)[nH]2)cc1
[2]
  AC50: 2.05 µM (active)
Protein RecA
  EC50: 1.02 µM (active)
[3]
  IC50: 50.8 µM (active)

## COc1cccc(OCC(O)CN2CCN(c3ccccn3)CC2)c1 (stereo unspecified)
Mu-type opioid receptor
  EC50: 92.4 µM (inactive)
[4]
  EC50: 1.46 µM (active)

## CC(=O)c1cccc(NC(=O)c2cccc3c(-c4cccc(C(N)=O)c4)coc23)c1
[5]
  IC50: > 66.6 µM (inactive)
[6]
  IC50: 20.4 µM (inactive)

## Cc1ccc2nc(SCC(=O)c3ccccc3)nc(=O)n2c1
[7]
  EC50: 33.8 µM (active)
[8]
  EC50: 11 µM (active)
Cells [9]
  EC50: > 350 µM (not active)
H4
  EC50: 24 µM (active)
Cells [10]
  EC50: 37.8 µM (active)
[11]
  IC50: 52.5 µM (inactive)

## COc1ccc(OC)c(CCNC(=O)c2ccc3c(=O)[nH]c4c(C(=O)NC(C)C)sc(=S)n4c3c2)c1
[12]
  IC50: 20.9 µM (inactive)

## O=C(/C=C/c1ccc(Cl)cc1)NC(=S)Nc1ccc(C(=O)O)cc1
[13]
  IC50: 5.89 µM (active)
[14]
  IC50: 9.21 µM (active)
[15]
  IC50: 5.4 µM (active)
[16]
  IC50: 44.2 µM (inactive)
[17]
  IC50: 15.4 µM (active)

## COc1cccc(NC(=O)N(C)C[C@@H]2Oc3ncc(C#Cc4ccncc4)cc3C(=O)N([C@@H](C)CO)C[C@H]2C)c1
[18]
  AC50: 36.1 µM (active)
